# Values quoted from earlier work in patent US20220175791A1, “Methods for Predicting Neisseria Spp. Susceptibility to Cefixime” (priority 2019, published 2022).
compound,measurement,setting,value
"C=CC1=C(C(=O)O)N2C(=O)[C@@H](NC(=O)/C(=N\OCC(=O)O)c3csc(N)n3)[C@H]2SC1 [cefixime, Cefixime]",tolerability,even in penicillin allergic patients,very well tolerated
same,bioavailability,"human, in vivo, po",high
